From patent US9486434B2, “Method for delivery and use of isothiocyanates for prophylaxis and/or therapy of bladder cancer” (Health Research Inc., priority 2010, dated 2016)
* marks the point of attachment. Cbz = O=C(OCc1ccccc1)*; CH2F = FC*

Tests used:
[1] = test system: human bladder cancer UM-UC-3 cells; assay: MTT cell growth and proliferation assay, UM-UC-3 cells; assay type: cell-based; settings: sinigrin by itself, without myrosinase; result not shown
Method: (§1) FIG. 3. The effect of AITC on cell survival and proliferation. AITC was evaluated at the indicated concentrations in human bladder cancer UM-UC-3 cells, rat bladder cancer AY-27 cells, and normal human bladder epithelial cells (HUC). A. Cell growth inhibition, measured by MTT assay, 72-h AITC treatment. IC50 was calculated from nonlinear regression curve fit. B. Cell cycle arrest (□, subG1; ? , G1; ? , 5; ▪, G2/M), measured by flow cytometry, 24 h AITC treatment. C. Apoptosis induction, measured by an ELISA assay, 24 h AITC treatment. Mean±SE, n=3-6), *P<0.05.
(§2) FIG. 10. The effect of NAC-AITC on cell survival and proliferation. NAC-AITC was evaluated in both UM-UC-3 cells and AY-27 cells. (A) Chemical structures of AITC and NAC-AITC. (B) Cell growth and proliferation, measured by 3-([…])-2,5-diphenyltetrazolium bromide assay, 72 h treatment with AITC or NAC-AITC at indicated concentrations. IC50 was calculated from the non-linear regression curve fit. (C) Apoptosis, measured by an enzyme-linked immunosorbent assay, 24 h NAC-AITC treatment at 15 µM. (D) Cell cycle (open bars, G1; shaded bars, S; closed bars, G2/M), measured by flow cytometry, 24 h NAC-AITC treatment at 15 μM. *P<, 0.005, compared with control.
(§3) Assays for cell proliferation, cell cycle arrest and apoptosis. To determine the antiproliferative activity of NAC-AITC, AY-27 cells were grown in 96-well microtiter plates ([…] with 0.15 ml medium per well) for 24 h and then grown for 72 h in fresh medium (0.2 ml/well) containing a series of concentrations of NAC-AITC or solvent. Cell growth was measured at the end of treatment using the 3-([…])-2,5-diphenyltetrazolium bromide assay, from which the half maximal inhibitory concentration (IC50) of NAC-AITC was calculated. AITC was also evaluated for comparison.

[2] = test system: rat bladder cancer AY-27 cells; assay: MTT cell growth and proliferation assay, AY-27 cells; assay type: cell-based; settings: sinigrin by itself, without myrosinase; result not shown
Method: as §1, §2, §3

[3] = test system: orthotopic AY-27 bladder tumor; assay: Orthotopic rat bladder cancer model; assay type: in vivo, rat (female F344); settings: sinigrin
Source text: FIG. 6. […] Female F344 rats were inoculated intravesically with bladder cancer AY-27 cells to initiate development of orthotopic bladder tumor. Oral administration of AITC at 0, 10, 25, 50 and 300 micromols/kg once daily was started 1 day after AY-27 cell inoculation and ended 3 weeks later. The number of rats per group varied from 6 to 33; some of the data, particularly the control group (n=33) and the group treated with the lowest dose of AITC (n=23), were pooled from several experiments. A. The initial and final body weights. B. The weights of bladder tumors. […] C. Percentage of bladders where the tumor invaded the muscle tissue. D. H/E staining of the normal rat bladder wall (D1), a superficial rat bladder tumor (D2), and a rat bladder tumor that invaded the muscle layer (D3).
FIG. 8. […] Female F344 rats were inoculated with AY-27 cells intravesically via a urethra catheter to initiate development of orthotopic bladder cancer. Oral administration of MSP-1 of vehicle (water) once daily was started 1 day after cancer cell inoculation and ended 3 weeks later. The number of rats per group varied from 11-29. A. Initial (□) and final (▪) body weights. […] Each value in A and B is mean±SEM. C. Percentage of bladder where the tumor invaded the muscle tissue. D. The effects of MSP-1 on selected anticancer targets in UM-UC-3 cells (in vitro), AY-27 cells (in vitro) and AY-27 tumors (in vivo). […] The bladder tumors were removed from rats treated with MSP-1 at the sinigrin doses of 9 or 90 micromols/kg once daily for 3 weeks, started 1 day after cancer cell inoculation. Cell lysates and tumor homogenates were analyzed by Western blotting, using GAPDH as a loading control.
FIG. 9. […] Female F344 rats were inoculated with bladder cancer AY-27 cells to initiate development of orthotopic bladder tumor. Oral administration of the powder (sinigrin and glucoraphanin: each at 10 micromols/kg) once daily was started 1 day after AY-27 cell inoculation and ended 3 weeks later. The number of rats per group was 9-10. Each value is mean±SE.
FIG. 12. […] Bladder cancer was initiated in female F344 rats by orthotopic inoculation of bladder cancer AY-27 cells. Oral administration of NAC-AITC at 10 μmmol/kg body wt once daily was started 1 day after cancer cell inoculation and ended 3 weeks later. There were 23 rats in the control group and 15 rats in the treatment group. (A) The initial (open bars) and final (closed bars) body weight. (B) Bladder tumor weight. Each value is a mean±SE. (C) Percentage of bladders where the tumor invaded the muscle tissue.
AITC was evaluated in an orthotopic rat bladder cancer model. […] Daily oral administration of AITC was initiated one day after instillation of AY-27 cells and continued for 3 weeks. AITC was evaluated at 4 dose levels: 10, 25, 50 and 300 micromols/kg. […] FIG. 6D depicts representative images of normal rat bladder wall (D1), a superficial AY-27 rat bladder tumor (D2), and a muscle-invasive AY-27 rat bladder tumor (D3).
A syngeneic orthotopic rat bladder cancer model.

[4] = Conversion of sinigrin to AITC in vivo; settings: rat
[5] = test system: cyclooxygenase-2 (Cox-2) in human bladder cancer HT1376 cells; assay: Western blot analysis of Cox-2 in HT1376 cells; assay type: cell-based; settings: 24 h, cells overexpressing Cox-2
Method: FIG. 5. The effects of AITC and SF on cyclooxygenase-2 (Cox-2) expression in human bladder cancer cells. Human bladder cancer HT1376 cells that over express Cox-2 were treated with AITC or SF at the indicated concentrations for 24 h and then harvested for Western blot analysis of Cox-2. GAPDH is used as a loading control.

[6] = reference [18]; cited from earlier work
[7] = test system: α-tubulin, β-tubulin, γ-tubulin, caspase-9, caspase-3, VEGF in UM-UC-3 cells; assay: Western blotting in UM-UC-3 cells (tubulins, caspases, VEGF); assay type: cell-based, human; settings: co-treatment, 20 microM Z-LEHD-FMK
Method: (§4) FIG. 4. Effect of AITC on mitosis, tubulin expression and apoptosis in human bladder cancer UM-UC-3 cells. Cells were treated with vehicle or AITC for 24 h (each numerical value is mean±SD). A. Flow cytometry analysis for cell cycle arrest. B. Wright-Giemsa staining for counting mitotic figures. Arrows point to cells in mitosis or mitotic catastrophe. C. Immunofluorescent staining of microtubules (green color) and DNA staining with DAPI (blue color). D. Western blotting of tubulins (GAPDH as a loading control). E. Loss of mitochondrial transmembrane potential (Δψm) measured by flow cytometry. F. Western blotting of caspase-9 and caspase-3 (GAPDH as a loading control). G. Apoptotic cells (TUNEL cells) measured by flow cytometry. Cells in F and G were co-treated with or without 20 microM Z-LEHD-FMK (a caspase-9 inhibitor).
FIG. 8. Inhibition of bladder cancer development by MSP-1. Female F344 rats were inoculated with AY-27 cells intravesically via a urethra catheter to initiate development of orthotopic bladder cancer. Oral administration of MSP-1 of vehicle (water) once daily was started 1 day after cancer cell inoculation and ended 3 weeks later. The number of rats per group varied from 11-29. A. Initial (□) and final (▪) body weights. B. Tumor weight was calculated by subtracting the average normal bladder weight from tumor-bearing bladder weight. *P<0.05. Each value in A and B is mean±SEM. C. Percentage of bladder where the tumor invaded the muscle tissue. D. The effects of MSP-1 on selected anticancer targets in UM-UC-3 cells (in vitro), AY-27 cells (in vitro) and AY-27 tumors (in vivo). The cells were treated with MSP-1 at the sinigrin concentrations of 13 and 26 microM for 24 h. The bladder tumors were removed from rats treated with MSP-1 at the sinigrin doses of 9 or 90 micromols/kg once daily for 3 weeks, started 1 day after cancer cell inoculation. Cell lysates and tumor homogenates were analyzed by Western blotting, using GAPDH as a loading control.
Western blot analysis. […]

[8] = test system: UM-UC-3 cells; assay: Mitochondria-mediated apoptosis in UM-UC-3 cells (Δψm, cytochrome c, TUNEL); assay type: cell-based, human; settings: co-treatment, 20 microM Z-LEHD-FMK
Method: as §4

C=CCC(=NOS(=O)(=O)O)S[C@@H]1O[C@H](CO)[C@@H](O)[C@H](O)[C@H]1O (stereo in doubt) [sinigrin, reference compound]
activity in vitro on bladder cancer cell line [1]: inactive
activity in vitro on bladder cancer cell line [2]: inactive
efficacy in the orthotopic rat bladder cancer model [3]: ineffective
sinigrin converted to AITC in vivo [4]: 3-5%

C[S+]([O-])CCCCN=C=S (centres unmarked) [SF, sulforaphane]
effect on Cox-2 expression [5]: strongly down regulates
delivery to bladder tissue [6]: selectively delivered to bladder tissue through urinary excretion

Cbz-LEHD-CH2F [reference compound]
effect on AITC-caused activation of the caspases [7]: completely blocked
effect on AITC-caused formation of TUNEL-positive cells [8]: completely blocked
